The text below walks through data of ChEMBL document CHEMBL1201862, “PubChem BioAssay data set” (2004).

Common to all, as to assay: NCI anticancer screen, dose series, 48 h
Test [1] deals with UO-31.
Test [2] has as its system SNB-19.
Test [3] has as its system UACC-62.
The subject of test [4] is UACC-257.
Test [5] deals with OVCAR-4.
Test [6] relates to K562.
Test [7] relates to SK-OV-3.
Test [8] deals with NCI-H522.
For test [9], the system named is SK-MEL-2.
The subject of test [10] is HOP-92.
Test [11] deals with OVCAR-8.
For test [12], the system named is SF-295.
The test system of test [13] is OVCAR-3.
Test [14] has as its system PC-3.
The test system of test [15] is TK-10.
For test [16], the system named is ACHN.
The test system of test [17] is SNB-75.
Test [18] concerns NCI/ADR-RES.
The test system of test [19] is NCI-H23.
Test [20] has as its system SK-MEL-28.

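How tested: cells in 96-well plates exposed to compound for 48 hours at five concentrations. At the GI50, growth is halved.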 Active and inactive are the calls of the source. No stated cut-off is given here; in the data, active = GI50 up to about 1.1 µM and inactive = higher. Where only a bound is given, the exact number is not on record here.

With `CCOC(=O)C(NCc1ccc2c(c1)OCO2)(NC(=O)c1ccccc1)C(F)(F)F` (stereo not given), the GI50 in [1] was 51.3 µM (inactive); in [2] it was > 100 µM (inactive); in [3], > 100 µM (inactive); in [4] it was > 100 µM (inactive); in test [5], 76.7 µM (inactive); in test [6], 44.4 µM (inactive). Besides, the GI50 was > 100 µM (inactive) in test [7]; 39.1 µM (inactive) in test [8]; > 100 µM (inactive) in test [9]; 41.9 µM (inactive) in test [10]; > 100 µM (inactive) in test [11]; > 100 µM (inactive) in test [12]. Also, the GI50 is > 100 µM (inactive) in [13]; 65 µM (inactive) in test [14]; > 100 µM (inactive) in test [15]; > 100 µM (inactive) in [16]; > 100 µM (inactive) in [17]; 46.2 µM (inactive) in test [18]. Further, the GI50 in test [19] is 62.2 µM (inactive); in test [20], > 100 µM (inactive).

For `C[C@H](CCC(=O)O)[C@H]1CC[C@H]2[C@@H]3[C@@H](O)C[C@@H]4C[C@H](O)CC[C@]4(C)[C@H]3CC[C@]12C`, the GI50 was 57.5 µM (inactive) in [1]; > 100 µM (inactive) in [2]; 76.2 µM (inactive) in test [3]; 92.9 µM (inactive) in test [4]; > 100 µM (inactive) in [5]; 69.8 µM (inactive) in test [6]. Moreover, the GI50 in [7] was > 100 µM (inactive); in test [8] it was > 100 µM (inactive); in test [9], > 100 µM (inactive); in test [10], > 100 µM (inactive); in [11], 73.8 µM (inactive); in [12] it was 53.6 µM (inactive). Moreover, the GI50 in [13] was 60.8 µM (inactive); in test [14], 45.4 µM (inactive); in test [15] it was 99.3 µM (inactive); in test [16], > 100 µM (inactive); in [17], > 100 µM (inactive); in test [18], 38.7 µM (inactive). Also, the GI50 in [19] is 65.2 µM (inactive); in test [20], 98.6 µM (inactive).

In the case of `CC1=NN(C(=O)c2ccccc2O)C(=O)/C1=C/c1cccc(O)c1`, the GI50 in [1] is 0.178 µM (active); in [2], 0.543 µM (active); in [3], 0.274 µM (active); in test [4] it was 1.21 µM (inactive); in test [5], 2.27 µM (inactive); in [6], 0.178 µM (active). Also, the GI50 in test [7] was 2.43 µM (inactive); in test [8], 1.22 µM (inactive); in test [9] it was 0.968 µM (active); in [10], 0.462 µM (active); in test [11] it was 0.571 µM (active); in [12] it was 0.671 µM (active). For the same compound, the GI50 in test [13] is 0.824 µM (active); in test [14], 3.19 µM (inactive); in [15], 4.76 µM (inactive); in test [16], 0.188 µM (active); in [17], 0.258 µM (active); in test [18] it was 6.21 µM (inactive). Besides, the GI50 in [19] is 0.405 µM (active); in [20], 50.6 µM (inactive).

Take `Clc1ccc(Cc2nc3ccccc3o2)cc1`: the GI50 in test [1] is 67.6 µM (inactive); in [2], > 100 µM (inactive); in [3], > 100 µM (inactive); in test [4] it was 52.1 µM (inactive); in [5] it was 48.2 µM (inactive); in test [6] it was 50.7 µM (inactive). The GI50 is > 100 µM (inactive) in [7]; 33.8 µM (inactive) in test [8]; > 100 µM (inactive) in [9]; > 100 µM (inactive) in test [10]; > 100 µM (inactive) in [11]; 57.8 µM (inactive) in test [12]. The GI50 in test [13] was 52.8 µM (inactive); in test [14], 55.8 µM (inactive); in test [15], > 100 µM (inactive); in test [16], > 100 µM (inactive); in [17] it was 20 µM (inactive); in [18], 42 µM (inactive). Further, the GI50 in test [19] is 56 µM (inactive); in [20], > 100 µM (inactive).

`Cc1ccc(Nc2[nH]c(=O)[nH]c(=O)c2C)cc1Cl`: the GI50 is 30.4 µM (inactive) in test [1]; > 100 µM (inactive) in test [2]; 59.3 µM (inactive) in [3]; > 100 µM (inactive) in test [4]; > 100 µM (inactive) in [5]; > 100 µM (inactive) in test [6]. The GI50 is > 100 µM (inactive) in test [7]; > 100 µM (inactive) in [8]; > 100 µM (inactive) in test [9]; 76 µM (inactive) in test [10]; > 100 µM (inactive) in test [11]; 26.2 µM (inactive) in [12]. In addition, the GI50 was 62.1 µM (inactive) in test [13]; 67.9 µM (inactive) in test [14]; 91.8 µM (inactive) in [15]; > 100 µM (inactive) in test [16]; 29.8 µM (inactive) in [17]; > 100 µM (inactive) in test [18]. Moreover, the GI50 in [19] and in [20] was > 100 µM (inactive) in each case.

With `O=C(O)C(O)c1ccc(F)cc1` (stereo not given), the GI50 in [1], in [2], in test [3], in [4], in [5] and in [6] was > 100 µM (inactive) throughout. Further, the GI50 in test [7], in test [8], in test [9], in [10], in [11] and in test [12] was > 100 µM (inactive) in each case. The GI50 in test [13], in test [14], in [15], in test [16], in [17] and in test [18] was > 100 µM (inactive) in each case. Also, the GI50 in test [19] and in [20] was > 100 µM (inactive) in each case.

Turning to `COc1ccc2c(-c3ccc(OCCN(C)C)cc3)c(Oc3ccc(Cl)cc3)c(=O)oc2c1`, the GI50 was 3.28 µM (inactive) in test [1]; 8.02 µM (inactive) in test [2]; 2.75 µM (inactive) in [3]; 2.05 µM (inactive) in test [4]; 20 µM (inactive) in test [5]; 2.54 µM (inactive) in [6]. The GI50 was 7.4 µM (inactive) in test [7]; 4.07 µM (inactive) in [8]; 5 µM (inactive) in test [9]; 5.5 µM (inactive) in test [10]; 8.36 µM (inactive) in test [11]; 2.12 µM (inactive) in [12]. The GI50 in [13] was 6.17 µM (inactive); in [14], 4.98 µM (inactive); in test [15] it was 7.82 µM (inactive); in [16], 7.23 µM (inactive); in test [17], 7.19 µM (inactive); in test [18] it was 9.16 µM (inactive). Moreover, the values for the GI50 in [19] and in test [20] were 14.5 µM (inactive) and 1.82 µM (inactive), respectively.
